Several values for one entry are separate records, joined by “and”; a condition that tells them apart may be missing. Equal values may be shown once.
Experiments:
[1] = target: T1, recombinant rabbit GSK-3β protein (Oryctolagus cuniculus, UniProt G1T8E2); test: Glycogen Synthase Kinase-3 Assay (33P phosphorylation of PPI-2); assay type: biochemical; conditions: for IC50: two numbers = data obtained on different days
T1 construct: purchased New England Biolabs
Experimental: Glycogen Synthase Kinase-3 Assay
Compounds were tested for the ability to inhibit recombinant rabbit GSK-3β protein using the following protocol. The test compound was added to a reaction mixture containing Protein Phosphatase Inhibitor-2 (PPI-2) (Calbiochem) (45 ng), rabbit GSK-3β protein (New England Biolabs) (0.75 units) and ^33P-ATP (1 μCi) in 50 mM Tris-HCl (pH 8.0), 10 mM MgCl2, 0.1% BSA, 1 mM DTT and 100 μM Sodium Vanadate. The mixture was reacted for 90 minutes at 30° C. to allow phosphorylation of the PPI-2 protein and then the protein in the reaction was precipitated using 10% TCA. The precipitated protein was collected on filter plates (MultiScreen-DV/Millipore), which were subsequently washed. Finally, the radioactivity was quantified using a TopCount Scintillation Counter (Packard). […] Staurosporine or Valproate, known inhibitors of GSK-3β, were used as a positive control for screening.

PKC-βII = PKC-βII (Homo sapiens, UniProt P05771); test: Protein Kinase C Histone-Based Assay, isozyme β-II; assay type: biochemical; conditions: for IC50: histone III substrate
Experimental: (§1) Compounds were evaluated for PKC isozyme selectivity using histone III as the substrate. […] 100 μg/mL phosphatidylserine, 20 μg/mL diacylglycerol, 30 μM ATP, 1 μCi [^33P]ATP and 200 μg/mL histone III. The reaction was incubated for 10 min at 30° C. Reactions were terminated by TCA precipitation and spotting on Whatman P81 filters. Filters were washed in 75 mM phosphoric acid and the radioactivity quantified by liquid scintillation counting.

PKC-α = PKC-α (Homo sapiens, UniProt P17252); test: Protein Kinase C Histone-Based Assay, isozyme α; conditions: for inhibition at 10 µM / inhibition at 1 µM: read-out: PKC-α % inhibition
Experimental: as §1

PKC-γ = PKC-γ (Homo sapiens, UniProt P05129); test: Protein Kinase C Histone-Based Assay, isozyme γ; conditions: for inhibition at 10 µM / inhibition at 1 µM: read-out: PKC-γ % inhibition
Experimental: as §1

T1 sequence (G1T8E2 1-432): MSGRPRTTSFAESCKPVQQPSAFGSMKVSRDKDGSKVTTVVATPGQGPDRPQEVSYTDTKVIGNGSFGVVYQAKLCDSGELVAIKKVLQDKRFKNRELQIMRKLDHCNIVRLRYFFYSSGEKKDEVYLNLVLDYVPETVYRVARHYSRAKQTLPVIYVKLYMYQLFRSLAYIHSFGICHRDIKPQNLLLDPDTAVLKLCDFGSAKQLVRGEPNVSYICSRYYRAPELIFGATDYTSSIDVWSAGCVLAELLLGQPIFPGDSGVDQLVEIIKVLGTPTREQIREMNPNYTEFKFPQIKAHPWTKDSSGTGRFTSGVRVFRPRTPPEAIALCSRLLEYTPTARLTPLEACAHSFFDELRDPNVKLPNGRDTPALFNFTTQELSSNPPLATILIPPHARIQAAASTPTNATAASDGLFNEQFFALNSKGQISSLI
Chain of PKC-βII (P05771 1-673 isoform P05771-2): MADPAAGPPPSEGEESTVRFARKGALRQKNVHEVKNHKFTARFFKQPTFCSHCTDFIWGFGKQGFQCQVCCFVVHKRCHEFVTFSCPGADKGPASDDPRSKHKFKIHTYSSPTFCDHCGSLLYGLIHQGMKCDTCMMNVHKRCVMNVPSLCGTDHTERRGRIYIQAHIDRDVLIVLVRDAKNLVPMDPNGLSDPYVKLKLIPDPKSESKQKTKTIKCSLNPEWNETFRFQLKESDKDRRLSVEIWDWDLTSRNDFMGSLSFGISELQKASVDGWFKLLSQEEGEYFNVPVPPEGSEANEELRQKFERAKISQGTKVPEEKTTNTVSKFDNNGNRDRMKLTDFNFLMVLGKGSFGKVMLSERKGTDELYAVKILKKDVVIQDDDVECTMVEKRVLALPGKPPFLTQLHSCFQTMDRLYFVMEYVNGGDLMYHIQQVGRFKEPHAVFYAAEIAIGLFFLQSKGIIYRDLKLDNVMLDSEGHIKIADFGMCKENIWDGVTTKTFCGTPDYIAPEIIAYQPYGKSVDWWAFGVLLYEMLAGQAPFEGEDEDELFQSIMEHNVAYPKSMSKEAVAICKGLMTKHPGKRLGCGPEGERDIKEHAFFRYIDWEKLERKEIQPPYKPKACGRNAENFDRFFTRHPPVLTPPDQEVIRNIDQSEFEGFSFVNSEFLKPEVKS

IC50 [1] | inhibition at 1 µM (PKC-βII) | inhibition at 10 µM (PKC-α) | inhibition at 10 µM (PKC-γ) | inhibition at 1 µM ([1]; @1 μM, two numbers = different days) | IC50 (PKC-βII) | IC50 (PKC-α) | IC50 (PKC-γ) | inhibition at 10 µM (PKC-βII) | inhibition at 1 µM (PKC-α) | inhibition at 1 µM (PKC-γ) | Structure (SMILES)
8 nM and 11 nM | 35% | 31% | 35% | – | – | – | – | – | – | – | COC(=O)NCCCn1cc(C2=C(c3ccccc3OC)C(=O)NC2=O)c2cccnc21 [Cpd 35, [3-[3-[2,5-dihydro-4-(2-methoxyphenyl)-2,5-dioxo-1H-pyrrol-3-yl]-1H-pyrrolo[2,3-b]pyridin-1-yl]propyl]-carbamic acid methyl ester]
– | – | – | – | 21% | 2 nM | 53 nM | 151 nM | – | – | – | CN(C)CCCn1nc(C2=C(c3cn(-c4ccc5ccccc5c4)c4ncccc34)C(=O)NC2=O)c2ccccc21 [Cpd 20, 3-[1-[3-(dimethylamino)propyl]-1H-indazol-3-yl]-4-[1-(2-naphthalenyl)-1H-pyrrolo[2,3-b]pyridin-3-yl]-1H-pyrrole-2,5-dione]
30 nM and 31 nM | 30% | 51% | 31% | – | – | – | – | 89% | 0% | 20% | O=C1NC(=O)C(c2cn(CCCO)c3ncccc23)=C1c1cccc2ccccc12 [Cpd 3, 3-[1-(3-hydroxypropyl)-1H-pyrrolo[2,3-b]pyridin-3-yl]-4-(1-naphthalenyl)-1H-pyrrole-2,5-dione]

Further lines, the molecule ahead of its results:

Structure (SMILES) | IC50 [1] | inhibition at 1 µM (PKC-βII) | inhibition at 10 µM (PKC-α) | inhibition at 10 µM (PKC-γ) | inhibition at 1 µM ([1]; @1 μM, two numbers = different days) | IC50 (PKC-βII) | IC50 (PKC-α) | IC50 (PKC-γ) | inhibition at 10 µM (PKC-βII) | inhibition at 1 µM (PKC-α) | inhibition at 1 µM (PKC-γ)
CN(C)CCCn1cc(C2=C(c3ccccc3Cl)C(=O)NC2=O)c2cccnc21 [Cpd 2, 3-(2-chlorophenyl)-4-[1-[3-(dimethylamino)propyl]-1H-pyrrolo[2,3-b]pyridin-3-yl]-1H-pyrrole-2,5-dione] | 19 nM | 22% | 1% | 54% | – | – | – | – | 50% | 0% | 46%
COC(=O)NCCCn1cc(C2=C(c3ccccc3C(F)(F)F)C(=O)NC2=O)c2cccnc21 [Cpd 37, [3-[3-[2,5-dihydro-4-(2-trifluoromethylphenyl)-2,5-dioxo-1H-pyrrol-3-yl]-1H-pyrrolo[2,3-b]pyridin-1-yl]propyl]-carbamic acid methyl ester] | 14 nM and 19 nM | – | – | – | – | 342 nM | 5270 nM | 4750 nM | – | – | –

— patent US7125878B2, “Substituted pyrroline kinase inhibitors” (Janssen Pharmaceutica, priority 2002, dated 2006)
